Experimental data as given in patent publication US11999697B2, “Methods and compositions for inhibition of dihydroorotate dehydrogenase” (OHIO STATE INNOVATION FOUNDATION, priority 2018, dated 2024).
Like-named read-outs stand apart in the source and are kept apart here. One block for each molecule: values may come before it.

How the values were obtained:
Type in all cases: cell-based
OCI-AML3 = test: MTS cell proliferation assay, OCI-AML3; conditions: Homo sapiens
Description: (§1) Triplicate wells were set up for each condition.
(§2) The assays were carried out in a blinded fashion.

MOLM-13 = test: MTS cell proliferation assay, MOLM-13; conditions: Homo sapiens, 96 hours
Description: as §1, §2

MV4-11 = test: MTS cell proliferation assay, MV4-11; conditions: for IC50: Homo sapiens, MV4-11, MTS
THP1 = test: MTS cell proliferation assay, THP1; conditions: Homo sapiens, THP-1, 96 hours
Description: as §1, §2

HL-60 = test: MTS cell proliferation assay, HL-60; conditions: Homo sapiens, 96 hours
Description: as §1, §2

[1] = OCI-AML-3, 96 hours, read-out: IC50 (μM) at 96 hours, OCI-AML3
[2] = 96 hours, read-out: IC50 (μM) at 96 hours, MV4-11
[3] = OCI-AML-3, 96 hour, Table 6, read-out: 96 hour IC50 (nM) in OCI-AML-3 cell line
[4] = 96 hour, Table 7, read-out: 96 hour IC50 (nM) in MV-411 cell line

IC50 (OCI-AML3; [1]): 0.09 µM
IC50 (MOLM-13): 3.06 µM
Structure (SMILES): CC1=C(/C=C/C(C)=C/C=C/C(C)=C/C(=O)O)C(C)(C)CCC1 [ATRA, all-trans-retinoic acid, reference compound]

IC50 (MV4-11; [2]): 0.49 µM
IC50 (THP1): 1 µM
IC50 (HL-60): 0.23 µM
IC50 (OCI-AML3; [1]): 0.4 µM
IC50 (MOLM-13): 0.48 µM
Structure (SMILES): Cc1c(-c2ccc(-c3ccccc3F)cc2)nc2ccc(F)cc2c1C(=O)O [BQR•Na, reference compound]

IC50 (OCI-AML3; [3]): 0.314 µM
Structure (SMILES): Cc1c(-c2ccc(-c3ccccc3F)cc2)nc2ccc(F)cc2c1C(=O)O [Brequinar, 6-fluoro-2-(2′-fluoro-1,1′-biphenyl-4-yl)-3-methyl-4-quinolinecarboxylic acid, reference compound]
rescue of cytotoxic effects by uridine (MV4-11; 0.25 or 0.5 μM compound, uridine 0 to 200 μM, 96 hours): rescued by growth in the presence of uridine

IC50 (MV4-11; [2]): 7.54 µM
IC50 (THP1): 11.6 µM
IC50 (HL-60): 3.57 µM
IC50 (OCI-AML3; [1]): 4.99 µM
IC50 (MOLM-13): 6.76 µM
Structure (SMILES): COc1ccc(-c2ccc(-c3cc(C(=O)O)c4cccc(F)c4n3)cc2)cc1 [Cpd8, 8-fluoro-2-(4′-methoxy-[1,1′-biphenyl]-4-yl)quinoline-4-carboxylic acid]

IC50 (MV4-11; [2]): 14 µM
IC50 (THP1): 21.4 µM
IC50 (HL-60): 9.48 µM
IC50 (OCI-AML3; [1]): 11.2 µM
IC50 (MOLM-13): 8.63 µM
Structure (SMILES): Cc1c(-c2ccc(-c3ccc(F)cc3F)cc2)nc2c(F)cccc2c1C(=O)O [Cpd14, 2-(2′,4′-difluoro-[1,1′-biphenyl]-4-yl)-8-fluoro-3-methylquinoline-4-carboxylic acid]

IC50 (MV4-11; [2]): 6.23 µM
IC50 (THP1): 6.7 µM
IC50 (HL-60): 1.69 µM
IC50 (OCI-AML3; [1]): 2.9 µM
IC50 (MOLM-13): 3.42 µM
Structure (SMILES): CCOc1ccc(-c2ccc(-c3cc(C(=O)O)c4cccc(F)c4n3)cc2)cc1 [Cpd16, 2-(4′-ethoxy-[1,1′-biphenyl]-4-yl)-8-fluoroquinoline-4-carboxylic acid]

IC50 (MV4-11; [2]): 6.86 µM
IC50 (THP1): 9.34 µM
IC50 (HL-60): 2.4 µM
IC50 (OCI-AML3; [1]): 4.01 µM
IC50 (MOLM-13): 6.76 µM
Structure (SMILES): Cc1c(-c2ccc(-c3ccc(F)cc3)cc2)nc2ccc(F)cc2c1C(=O)O [Cpd18, 6-fluoro-2-(4′-fluoro-[1,1′-biphenyl]-4-yl)-3-methylquinoline-4-carboxylic acid]

IC50 (MV4-11; [4]): 0.69 µM
Structure (SMILES): COc1ccc(-c2ccc(-c3cc(C(=O)O)c4cc(F)ccc4n3)cc2)cc1 [Cpd20, 6-fluoro-2-(4′-methoxy-[1,1′-biphenyl]-4-yl)quinoline-4-carboxylic acid]

IC50 (MV4-11; [4]): 0.06 µM
Structure (SMILES): CCCOc1ccc(-c2ccc(-c3cc(C(=O)O)c4cc(F)ccc4n3)cc2)cc1 [Cpd21, 6-fluoro-2-(4′-propoxy-[1,1′-biphenyl]-4-yl)quinoline-4-carboxylic acid]

Structure (SMILES): CCCCOc1ccc(-c2ccc(-c3cc(C(=O)O)c4cc(F)ccc4n3)cc2)cc1 [Cpd22, 2-(4′-butoxy-[1,1′-biphenyl]-4-yl)-6-fluoroquinoline-4-carboxylic acid]
IC50 (MV4-11; [4]): 0.036 µM
IC50 (OCI-AML3; [3]): 0.155 µM

IC50 (MV4-11; [4]): 0.018 µM
IC50 (OCI-AML3; [3]): 0.0906 µM
Structure (SMILES): CCCCCCCOc1ccc(-c2ccc(-c3cc(C(=O)O)c4cc(F)ccc4n3)cc2)cc1 [Cpd23, 6-fluoro-2-(4′-(heptyloxy)-[1,1′-biphenyl]-4-yl)quinoline-4-carboxylic acid]

IC50 (OCI-AML3; [3]): 0.0495 µM
Structure (SMILES): O=C(O)c1cc(-c2ccc(-c3ccccc3F)cc2)nc2ccc(F)cc12 [Cpd24, 6-fluoro-2-(2'-fluoro-[1,1′-biphenyl]-4-yl)quinoline-4-carboxylic acid]

IC50 (OCI-AML3; [3]): 0.0676 µM
Structure (SMILES): CC(C)Oc1ccc(-c2ccc(-c3cc(C(=O)O)c4cc(F)ccc4n3)cc2)cc1 [Cpd25, 6-fluoro-2-(4′-isopropoxy-[1,1′-biphenyl]-4-yl)quinoline-4-carboxylic acid]

Structure (SMILES): CC(C)COc1ccc(-c2ccc(-c3cc(C(=O)O)c4cc(F)ccc4n3)cc2)cc1 [Cpd26, 6-fluoro-2-(4′-isobutoxy-[1,1′-biphenyl]-4-yl)quinoline-4-carboxylic acid]
IC50 (OCI-AML3; [3]): 0.0893 µM

IC50 (OCI-AML3; [3]): 0.637 µM
Structure (SMILES): CCOc1ccccc1-c1ccc(-c2cc(C(=O)O)c3cc(F)ccc3n2)cc1 [Cpd27, 2-(2′-ethoxy-[1,1′-biphenyl]-4-yl)-6-fluoroquinoline-4-carboxylic acid]

IC50 (OCI-AML3; [3]): 0.0209 µM
Structure (SMILES): CCOc1cccc(-c2ccc(-c3cc(C(=O)O)c4cc(F)ccc4n3)cc2)c1 [Cpd28, 2-(3′-ethoxy-[1,1′-biphenyl]-4-yl)-6-fluoroquinoline-4-carboxylic acid]

IC50 (OCI-AML3; [3]): 0.0729 µM
Structure (SMILES): CCCCCOc1ccc(-c2ccc(-c3cc(C(=O)O)c4cc(F)ccc4n3)cc2)cc1 [Cpd29, 6-fluoro-2-(4′-(pentyloxy)-[1,1′-biphenyl]-4-yl)quinoline-4-carboxylic acid]

IC50 (OCI-AML3; [3]): 0.0761 µM
Structure (SMILES): CCCCCCOc1ccc(-c2ccc(-c3cc(C(=O)O)c4cc(F)ccc4n3)cc2)cc1 [Cpd30, 6-fluoro-2-(4′-(hexyloxy)-[1,1′-biphenyl]-4-yl)quinoline-4-carboxylic acid]

IC50 (OCI-AML3; [3]): 0.175 µM
Structure (SMILES): CCCCCCCCOc1ccc(-c2ccc(-c3cc(C(=O)O)c4cc(F)ccc4n3)cc2)cc1 [Cpd31, 6-fluoro-2-(4′-(octyloxy)-[1,1′-biphenyl]-4-yl)quinoline-4-carboxylic acid]

Structure (SMILES): CC(C)(C)Oc1ccc(-c2ccc(-c3cc(C(=O)O)c4cc(F)ccc4n3)cc2)cc1 [Cpd32, 2-(4′-(tert-butoxy)-[1,1′-biphenyl]-4-yl)-6-fluoroquinoline-4-carboxylic acid]
IC50 (OCI-AML3; [3]): 0.0503 µM

IC50 (OCI-AML3; [3]): 0.0746 µM
Structure (SMILES): CC(C)CCOc1ccc(-c2ccc(-c3cc(C(=O)O)c4cc(F)ccc4n3)cc2)cc1 [Cpd33, 6-fluoro-2-(4′-(isopentyloxy)-[1,1′-biphenyl]-4-yl)quinoline-4-carboxylic acid]

IC50 (OCI-AML3; [3]): 0.0877 µM
Structure (SMILES): CCOc1ccc(-c2ccc(-c3cc(C(=O)O)c4cc(F)ccc4n3)cc2)c(F)c1 [Cpd35, 2-(4′-ethoxy-2′-fluoro-[1,1′-biphenyl]-4-yl)-6-fluoroquinoline-4-carboxylic acid]

IC50 (OCI-AML3; [3]): 0.33 µM
Structure (SMILES): CCOc1ccc(-c2ccc(-c3cc(C(=O)O)c4cc(C(F)(F)F)ccc4n3)cc2)cc1 [Cpd36, 2-(4′-ethoxy-[1,1′-biphenyl]-4-yl)-6-(trifluoromethyl)quinoline-4-carboxylic acid]

IC50 (OCI-AML3; [3]): 0.864 µM
Structure (SMILES): COCc1cccc(-c2ccc(-c3cc(C(=O)O)c4cc(F)ccc4n3)cc2)c1 [Cpd37, 6-fluoro-2-(3′-(methoxymethyl)-[1,1′-biphenyl]-4-yl)quinoline-4-carboxylic acid]

IC50 (OCI-AML3; [3]): 1.06 µM
Structure (SMILES): COCc1ccc(-c2ccc(-c3cc(C(=O)O)c4cc(F)ccc4n3)cc2)cc1 [Cpd38, 6-fluoro-2-(4′-(methoxymethyl)-[1,1′-biphenyl]-4-yl)quinoline-4-carboxylic acid]

IC50 (OCI-AML3; [3]): 0.0964 µM
Structure (SMILES): COCc1ccccc1-c1ccc(-c2cc(C(=O)O)c3cc(F)ccc3n2)cc1 [Cpd39, 6-fluoro-2-(2'-(methoxymethyl)-[1,1′-biphenyl]-4-yl) quinoline-4-carboxylic acid]

IC50 (MV4-11; [4]): 0.067 µM
Structure (SMILES): O=C(O)c1cc(-c2ccc(-c3ccc(Oc4ccccc4)cc3)cc2)nc2ccc(F)cc12 [Cpd40, 6-fluoro-2-(4′-phenoxy-[1,1′-biphenyl]-4-yl)quinoline-4-carboxylic acid]
